# Source: ChEMBL document CHEMBL1201862, “PubChem BioAssay data set” (2004)
# Activity calls are given as the source filed them.
# Key:
# [1] = target: Luciferin 4-monooxygenase (Photinus pyralis, UniProt P08659); test: firefly luciferase enzyme inhibitors, dose response, biochemical, luminescence (AID 1891)
# [2] = Luminescence Cell-Based Dose Confirmation HTS to Identify Inhibitors of Platelet Dense Granule Release. [Related pubchem assays: 1663 (Primary HTS), 1678 (Summary of Project)]; format: functional
# [3] = Luminescence-based counterscreen assay for KLF5 inhibitors: dose response cell-based high throughput screening assay to identify cytotoxic compounds using the IEC-6 intestinal epithelial cell line. [Related pubchem assays: 1700 (Primary screen.), 1834 (Confirmation screen.), 1858 (Summary AID.), 1905 (Counterscreen.)]; format: functional
# Paired box protein Pax-8 = Paired box protein Pax-8 (Homo sapiens, UniProt Q06710); test: inhibitors of PAX8-driven TPO luciferase reporter, dose response, RMG-I cells, cherry-pick (AID 687027); format: functional, cell-based;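 note: luciferase reporter driven by Pax8 target thyroperoxidase promoter measured by SteadyGlo luminescence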
# Paired box protein Pax-8, sequence (Q06710 whole entry): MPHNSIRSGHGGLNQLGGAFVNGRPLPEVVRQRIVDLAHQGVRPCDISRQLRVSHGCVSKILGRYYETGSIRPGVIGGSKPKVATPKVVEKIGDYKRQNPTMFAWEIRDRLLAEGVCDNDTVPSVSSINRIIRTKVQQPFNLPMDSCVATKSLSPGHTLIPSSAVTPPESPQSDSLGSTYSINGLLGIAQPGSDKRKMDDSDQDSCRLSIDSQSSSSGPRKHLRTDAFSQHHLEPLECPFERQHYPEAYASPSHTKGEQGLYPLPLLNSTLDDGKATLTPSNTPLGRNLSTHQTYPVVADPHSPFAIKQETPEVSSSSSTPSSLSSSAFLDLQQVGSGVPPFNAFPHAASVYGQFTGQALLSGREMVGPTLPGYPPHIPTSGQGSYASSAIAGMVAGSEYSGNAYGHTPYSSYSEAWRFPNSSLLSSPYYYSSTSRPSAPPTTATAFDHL
# [4] = target: COUP transcription factor 2 (Homo sapiens, UniProt P24468); test: Luminescence-based cell-based high throughput dose response assay to identify inhibitors of COUP-TFII (NR2F2).; format: functional;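 note: HEK293 cells transiently cotransfected with COUP-TFII expression vector and reporter; luciferase reporter luminescence driven by COUP-TFII from the pX2-168 reporter plasmid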
# COUP transcription factor 2, sequence (P24468 whole entry): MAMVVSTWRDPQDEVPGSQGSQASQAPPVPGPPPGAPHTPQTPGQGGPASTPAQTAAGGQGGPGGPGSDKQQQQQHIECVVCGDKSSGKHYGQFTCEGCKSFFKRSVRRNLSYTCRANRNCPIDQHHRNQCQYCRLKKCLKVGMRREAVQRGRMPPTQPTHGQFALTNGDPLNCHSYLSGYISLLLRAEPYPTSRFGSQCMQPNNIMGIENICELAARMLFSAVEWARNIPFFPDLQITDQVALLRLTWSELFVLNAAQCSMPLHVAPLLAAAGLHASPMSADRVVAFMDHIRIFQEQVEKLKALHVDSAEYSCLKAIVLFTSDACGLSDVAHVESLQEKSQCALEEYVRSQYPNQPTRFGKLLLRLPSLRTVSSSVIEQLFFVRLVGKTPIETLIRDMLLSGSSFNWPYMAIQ
# [5] = NIH-3T3 fibroblast cytotoxicity, dose response, cytotoxicity control, cell-based, fluorescence, Alamar Blue, secondary assay (AID 2327); format: functional;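 note: NIH-3T3 mouse fibroblasts cultured with fluconazole at 8 µg/mL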
# [6] = C. albicans growth with fluconazole, confirmation, fluorescence, retest (AID 2467); format: functional, cell-based
# [7] = target: Voltage-gated inwardly rectifying potassium channel KCNH2 (Homo sapiens, UniProt Q12809); test: hERG protection from proarrhythmic block, potency, dose response, cell-based, thallium flux (AID 2121); format: ADME
# Voltage-gated inwardly rectifying potassium channel KCNH2, sequence (Q12809 whole entry): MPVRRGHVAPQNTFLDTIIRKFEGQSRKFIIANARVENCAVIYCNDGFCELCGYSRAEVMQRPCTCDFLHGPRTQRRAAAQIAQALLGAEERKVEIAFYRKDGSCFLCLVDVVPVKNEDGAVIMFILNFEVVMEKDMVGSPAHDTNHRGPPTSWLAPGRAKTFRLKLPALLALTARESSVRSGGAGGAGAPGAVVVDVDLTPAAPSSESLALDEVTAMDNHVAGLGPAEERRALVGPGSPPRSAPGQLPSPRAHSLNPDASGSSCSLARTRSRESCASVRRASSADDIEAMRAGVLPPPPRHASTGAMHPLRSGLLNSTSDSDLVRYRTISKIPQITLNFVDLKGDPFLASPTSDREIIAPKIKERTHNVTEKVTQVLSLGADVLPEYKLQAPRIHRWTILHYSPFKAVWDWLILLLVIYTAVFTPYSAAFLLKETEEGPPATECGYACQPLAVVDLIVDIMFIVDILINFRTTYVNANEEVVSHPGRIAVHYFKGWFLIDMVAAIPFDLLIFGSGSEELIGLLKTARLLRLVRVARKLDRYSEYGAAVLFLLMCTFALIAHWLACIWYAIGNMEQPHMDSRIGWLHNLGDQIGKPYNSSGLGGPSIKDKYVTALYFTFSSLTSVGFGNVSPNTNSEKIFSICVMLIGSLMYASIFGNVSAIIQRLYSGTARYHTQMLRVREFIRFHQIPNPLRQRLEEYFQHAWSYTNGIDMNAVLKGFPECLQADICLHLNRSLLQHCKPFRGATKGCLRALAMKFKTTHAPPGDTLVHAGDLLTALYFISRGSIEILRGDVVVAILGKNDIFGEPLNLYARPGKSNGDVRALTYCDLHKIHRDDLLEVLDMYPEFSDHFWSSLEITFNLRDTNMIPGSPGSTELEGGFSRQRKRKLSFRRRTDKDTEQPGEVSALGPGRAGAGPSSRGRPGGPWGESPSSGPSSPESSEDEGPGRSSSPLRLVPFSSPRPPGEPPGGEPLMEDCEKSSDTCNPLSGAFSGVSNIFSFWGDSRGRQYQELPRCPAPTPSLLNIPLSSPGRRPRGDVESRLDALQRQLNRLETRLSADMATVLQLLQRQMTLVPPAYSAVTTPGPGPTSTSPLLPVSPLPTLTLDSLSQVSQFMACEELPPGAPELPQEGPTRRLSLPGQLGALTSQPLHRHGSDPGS
# Beta-galactosidase = Beta-galactosidase (Escherichia coli, UniProt Q8VNN2); test: beta-galactosidase enzyme inhibitors and activators, dose response, artefact control for CCR6 antagonist project, biochemical, E. coli enzyme, set 3 (AID 504712); format: functional
# Beta-galactosidase, sequence (Q8VNN2 whole entry): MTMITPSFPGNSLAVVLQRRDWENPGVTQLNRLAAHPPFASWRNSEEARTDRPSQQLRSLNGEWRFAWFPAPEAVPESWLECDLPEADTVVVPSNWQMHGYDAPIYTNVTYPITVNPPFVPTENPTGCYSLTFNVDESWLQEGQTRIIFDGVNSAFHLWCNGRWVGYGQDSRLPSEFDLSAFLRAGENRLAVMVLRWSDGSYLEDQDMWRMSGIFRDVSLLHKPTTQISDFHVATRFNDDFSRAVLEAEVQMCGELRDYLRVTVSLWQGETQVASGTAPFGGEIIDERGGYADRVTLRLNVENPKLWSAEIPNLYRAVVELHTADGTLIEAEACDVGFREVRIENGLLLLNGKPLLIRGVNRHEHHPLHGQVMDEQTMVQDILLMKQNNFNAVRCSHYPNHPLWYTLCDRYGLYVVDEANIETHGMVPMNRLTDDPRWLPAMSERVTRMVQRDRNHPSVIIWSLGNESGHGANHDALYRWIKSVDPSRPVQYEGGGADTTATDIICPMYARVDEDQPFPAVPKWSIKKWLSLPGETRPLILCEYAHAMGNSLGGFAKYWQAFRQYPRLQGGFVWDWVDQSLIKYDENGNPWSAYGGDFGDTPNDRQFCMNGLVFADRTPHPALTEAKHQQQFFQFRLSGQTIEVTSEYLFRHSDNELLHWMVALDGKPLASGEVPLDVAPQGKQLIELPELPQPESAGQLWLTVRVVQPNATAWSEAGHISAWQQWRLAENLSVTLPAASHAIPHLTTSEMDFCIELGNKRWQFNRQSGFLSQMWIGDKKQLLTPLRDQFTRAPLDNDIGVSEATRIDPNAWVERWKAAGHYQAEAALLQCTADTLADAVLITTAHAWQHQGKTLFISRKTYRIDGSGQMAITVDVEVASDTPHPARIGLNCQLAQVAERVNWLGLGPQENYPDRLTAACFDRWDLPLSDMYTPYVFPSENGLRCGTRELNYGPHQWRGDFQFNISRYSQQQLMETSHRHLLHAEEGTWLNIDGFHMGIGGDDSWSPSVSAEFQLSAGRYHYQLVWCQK
# [8] = human group III sPLA2 inhibitors, dose response, biochemical, QFRET, IC50 (AID 743457);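 note: green fluorescence rise as the enzyme cleaves BODIPY PC-A2 in liposomes; potency for inhibition of the enzyme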
# [9] = cytotoxicity in HPDE-C7 cells, cell-based, fluorescence, HTS (AID 430); format: functional; details: Homo sapiens
# [10] = cytotoxicity in KRAS-transformed pancreatic duct cells, primary screen, cell-based, fluorescence, HTS (AID 431); format: functional; details: Homo sapiens;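 note: cell line used: HPDE-C7K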
# [11] = P. falciparum late gametocyte killing, dose response, luminescence (AID 1117278); format: functional, cell-based;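 note: gametocytes exposed to compound for 24 hours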
# [12] = Jurkat T cell cytotoxicity, dose response, cytotoxicity control for P. falciparum gametocyte viability project, luminescence (AID 1117277); format: functional, cell-based;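 note: potency reflects loss of cellular ATP meaning fewer viable cells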
# HEK293 [13] = test: NOD1 signaling inhibitors, primary screen, cell-based, luminescence, uHTS (AID 1578); format: functional; details: Homo sapiens
# HEK293 [14] = test: cells; format: functional, cell-based; details: Homo sapiens
# HEK293 [15] = test: cells; format: functional, cell-based; details: Homo sapiens; remark: listed apart in the source
# [16] = target: Nucleotide-binding oligomerization domain-containing protein 2 (Homo sapiens, UniProt Q9HC29); test: NOD2 signaling inhibitors, cell-based, luminescence, uHTS, HEK293 (AID 1566); format: functional
# Nucleotide-binding oligomerization domain-containing protein 2, sequence (Q9HC29 whole entry, the tested form may be a part): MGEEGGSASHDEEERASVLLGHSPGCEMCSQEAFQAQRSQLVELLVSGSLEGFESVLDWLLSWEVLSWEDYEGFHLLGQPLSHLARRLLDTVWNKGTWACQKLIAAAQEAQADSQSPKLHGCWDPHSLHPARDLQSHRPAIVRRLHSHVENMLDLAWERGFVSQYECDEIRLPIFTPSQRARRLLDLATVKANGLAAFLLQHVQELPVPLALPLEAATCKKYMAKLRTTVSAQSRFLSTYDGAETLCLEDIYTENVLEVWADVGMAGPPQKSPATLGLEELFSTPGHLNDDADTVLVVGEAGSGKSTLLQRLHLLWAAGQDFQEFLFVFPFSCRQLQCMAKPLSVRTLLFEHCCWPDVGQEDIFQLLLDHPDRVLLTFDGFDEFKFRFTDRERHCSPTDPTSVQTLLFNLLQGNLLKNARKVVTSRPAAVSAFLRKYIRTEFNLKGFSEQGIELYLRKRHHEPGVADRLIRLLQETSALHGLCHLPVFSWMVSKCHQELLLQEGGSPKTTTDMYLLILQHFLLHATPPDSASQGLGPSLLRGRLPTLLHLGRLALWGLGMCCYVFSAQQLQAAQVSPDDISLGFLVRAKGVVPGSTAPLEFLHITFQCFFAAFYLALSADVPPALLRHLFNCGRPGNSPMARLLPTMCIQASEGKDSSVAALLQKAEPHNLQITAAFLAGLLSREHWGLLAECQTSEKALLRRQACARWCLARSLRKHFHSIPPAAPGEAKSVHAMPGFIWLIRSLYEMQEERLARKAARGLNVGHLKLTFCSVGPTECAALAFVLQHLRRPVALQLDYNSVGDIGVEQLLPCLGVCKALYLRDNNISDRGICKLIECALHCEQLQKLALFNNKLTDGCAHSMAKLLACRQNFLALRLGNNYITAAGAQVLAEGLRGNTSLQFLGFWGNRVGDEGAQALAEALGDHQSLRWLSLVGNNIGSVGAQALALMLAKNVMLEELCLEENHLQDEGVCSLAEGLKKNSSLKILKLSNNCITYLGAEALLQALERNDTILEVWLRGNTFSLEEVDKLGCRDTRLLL
# HEK293 [17] = test: NOD2 signaling inhibitors in MDP-stimulated cells, cell-based, uHTS, luminescence (AID 2001); format: functional; details: Homo sapiens
# HEK293 [18] = test: cells; format: functional, cell-based; details: Homo sapiens; remark: listed apart in the source
# INS1 = test: beta cell apoptosis inhibitors, cytokine rescue, dose response, luminescence, retest (AID 449756); format: functional, cell-based;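 note: cell death triggered by IL-1 beta plus TNF-alpha plus IFN-gamma mixture; protective hits raise ATP signal compared with cytokine alone wells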
# [19] = Shn3 3'UTR reporter inhibitors, dose response, cell-based, Clone20 osteoblasts, firefly luciferase, cherry-picked (AID 624132); format: functional;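 note: firefly luciferase luminescence from reporter carrying the Shn3 3'UTR in osteoblasts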
# [20] = HepG2 cell cytotoxicity, dose response, cytotoxicity control for Shn3 inhibitor project, CellTiter-Glo, cherry-picked (AID 624134); format: functional, cell-based
# [21] = reduction of Shn3 3'UTR firefly luciferase signal, dose response, Schnurri-3 inhibitor project, cell-based, Clone20 osteoblasts, cherry-pick, set 2 (AID 720490); format: functional;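 note: actives lower the luminescence signal as inhibitors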
# [22] = inhibitors of PGC1a acetylation in cells, dose response, cell-based, cherry-picked samples (AID 720514); format: functional;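 note: potency may reflect raised or lowered acetylation signal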
# Cytochrome P450 3A4 = Cytochrome P450 3A4 (Homo sapiens, UniProt P08684);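 note: CYP3A4 tested as one member of a cytochrome P450 panel screen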
# Cytochrome P450 3A4, sequence (P08684 whole entry): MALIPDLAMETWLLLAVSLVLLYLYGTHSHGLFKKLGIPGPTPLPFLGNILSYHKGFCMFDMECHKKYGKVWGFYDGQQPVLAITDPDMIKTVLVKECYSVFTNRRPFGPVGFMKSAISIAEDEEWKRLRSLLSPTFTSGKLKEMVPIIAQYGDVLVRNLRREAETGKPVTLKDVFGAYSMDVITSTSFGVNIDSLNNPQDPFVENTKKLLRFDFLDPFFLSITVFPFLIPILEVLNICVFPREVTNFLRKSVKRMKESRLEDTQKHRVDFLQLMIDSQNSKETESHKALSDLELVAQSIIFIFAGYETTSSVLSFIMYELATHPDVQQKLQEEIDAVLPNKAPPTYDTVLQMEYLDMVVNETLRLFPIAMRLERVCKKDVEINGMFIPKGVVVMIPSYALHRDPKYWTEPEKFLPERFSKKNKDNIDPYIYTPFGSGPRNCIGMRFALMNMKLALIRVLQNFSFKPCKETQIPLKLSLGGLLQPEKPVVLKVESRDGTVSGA
# Cytochrome P450 2C9 = Cytochrome P450 2C9 (Homo sapiens, UniProt P11712)
# Prothrombin = Prothrombin (Homo sapiens, UniProt P00734); test: Thrombin 1536 HTS Dose Response Confirmation. [Related pubchem assays: 1046 (Thrombin 1536 HTS; hits were confirmed in this assay)]; format: functional
# [23] = Luminescence Cell-Based Dose Retest to Confirm Inhibitors of Cancer Stem Cells. [Related pubchem assays (depositor defined):AID2717, AID2721]; format: functional; details: Homo sapiens
# [24] = target: T1, Microphthalmia-associated transcription factor (Homo sapiens, UniProt O75030); test: TRPM1 promoter luciferase signal decrease, dose response, MITF inhibitor project, cell-based, SK-MEL-5, cherry-picked, set 3 (AID 493073); format: functional
# T1 sequence (O75030 whole entry): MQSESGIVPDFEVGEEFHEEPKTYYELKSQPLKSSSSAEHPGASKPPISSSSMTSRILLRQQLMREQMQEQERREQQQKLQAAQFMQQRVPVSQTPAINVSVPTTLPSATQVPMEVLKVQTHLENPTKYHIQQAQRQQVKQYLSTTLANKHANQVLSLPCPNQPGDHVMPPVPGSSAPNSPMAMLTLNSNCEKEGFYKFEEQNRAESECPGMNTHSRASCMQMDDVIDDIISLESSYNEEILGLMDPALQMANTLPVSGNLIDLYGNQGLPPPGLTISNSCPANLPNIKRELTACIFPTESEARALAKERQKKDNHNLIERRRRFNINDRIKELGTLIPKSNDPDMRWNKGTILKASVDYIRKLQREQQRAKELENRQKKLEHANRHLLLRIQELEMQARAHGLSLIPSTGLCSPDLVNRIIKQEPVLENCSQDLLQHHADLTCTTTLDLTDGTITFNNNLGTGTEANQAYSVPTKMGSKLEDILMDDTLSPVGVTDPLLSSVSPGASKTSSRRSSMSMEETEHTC
# A-375 = test: A375 melanoma cell viability reduction, dose response, counter-screen for MITF modulator project, cherry-pick samples, set 2 (AID 540335); format: functional, cell-based; details: Homo sapiens
# [25] = control 3'UTR Renilla luciferase suppression, dose response, counter-screen for Shn3 inhibitor project, cell-based, Clone20-Shn3RL, cherry-picked (AID 624133); format: functional
# [26] = A549 cell cytotoxicity, dose response, cytotoxicity control, plate reader, cherry-pick, antagonist series (AID 743412); format: functional, cell-based
# [27] = HepG2 cell cytotoxicity, dose response, cytotoxicity control, plate reader, cherry-pick, antagonist series (AID 743416); format: functional, cell-based
# [28] = LGR2 antagonists, dose response, cell-based, HEK293, CRE-luciferase reporter, cherry pick, set 2 (AID 743343); format: functional;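 note: transfected cells were stimulated with diluted bursicon conditioned medium after compound addition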
# [29] = MC4R antagonists, dose response, counter-screen for LGR2 antagonist project, cell-based, plate reader, cherry pick (AID 743444); format: functional;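 note: transfected HEK 293 cells stimulated with alpha-MSH peptide; potency of inhibitors of the alpha-MSH evoked signal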
# [30] = HEK293 cell cytotoxicity, dose response, cytotoxicity control, plate reader, cherry-picked samples (AID 743446); format: functional, cell-based
# [31] = IOSE-T80 ovarian epithelial cell cytotoxicity, dose response, cytotoxicity control for PAX8 inhibitor project, plate reader, dry powder samples (AID 743045); format: functional, cell-based
# [32] = A2780 ovarian cancer cell cytotoxicity, dose response, cytotoxicity control, plate reader, dry powder samples (AID 743046); format: functional, cell-based
# [33] = NIH:OVCAR-3 ovarian cancer cell cytotoxicity, dose response, PAX8 inhibitor project, plate reader, dry powder samples (AID 743044); format: functional, cell-based
# [34] = IGROV1 ovarian cancer cell cytotoxicity, dose response, PAX8 inhibitor project, plate reader, dry powder samples (AID 743043); format: functional, cell-based; details: IGROV-1
# [35] = non-specific cell cytotoxicity, dose response, cytotoxicity control for PAX8 inhibitor project, plate reader, dry powder samples (AID 743021); format: functional, cell-based
# [36] = cytotoxicity in OVCAR8 ovarian cancer cells, dose response, PAX8 project, cell-based, plate reader, dry powder samples (AID 743197); format: functional; details: OVCAR-8
# [37] = YAP1 pathway inhibition via CTGF transcript levels, dose response, cell-based, DLD1 colon cancer, RT-qPCR, cherry-pick (AID 1053122); format: functional; details: Cancer cell lines
# [38] = cytotoxicity in HEK-293T cells, dose response, cytotoxicity control for BCR NF-kB inhibitor project, luminescence, B-cell screen hits (AID 489021); format: functional, cell-based;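 note: HEK-293T cells carrying an NF-kB luciferase reporter; cells exposed to compound for about 14 hours before viability readout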
# [39] = half-maximal inhibitory concentration for glucagon-like peptide-1 release, STC-1 cell line, dose-response (AID 1117345); format: functional, cell-based
# [40] = Glucagon-like peptide 1 release potency, NCI-H716 cell line, dose-response, half-maximal inhibitory concentration (AID 1117344); format: functional, cell-based
# Cytochrome P450 2D6 = Cytochrome P450 2D6 (Homo sapiens, UniProt P10635);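 note: CYP2D6 member of a cytochrome P450 panel assay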
# Cytochrome P450 1A2 = target: T2, Cytochrome P450 1A2 (Homo sapiens, UniProt P05177);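 note: PubChem cytochrome P450 panel assay, CYP1A2 panel member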
# T2 sequence (P05177 whole entry): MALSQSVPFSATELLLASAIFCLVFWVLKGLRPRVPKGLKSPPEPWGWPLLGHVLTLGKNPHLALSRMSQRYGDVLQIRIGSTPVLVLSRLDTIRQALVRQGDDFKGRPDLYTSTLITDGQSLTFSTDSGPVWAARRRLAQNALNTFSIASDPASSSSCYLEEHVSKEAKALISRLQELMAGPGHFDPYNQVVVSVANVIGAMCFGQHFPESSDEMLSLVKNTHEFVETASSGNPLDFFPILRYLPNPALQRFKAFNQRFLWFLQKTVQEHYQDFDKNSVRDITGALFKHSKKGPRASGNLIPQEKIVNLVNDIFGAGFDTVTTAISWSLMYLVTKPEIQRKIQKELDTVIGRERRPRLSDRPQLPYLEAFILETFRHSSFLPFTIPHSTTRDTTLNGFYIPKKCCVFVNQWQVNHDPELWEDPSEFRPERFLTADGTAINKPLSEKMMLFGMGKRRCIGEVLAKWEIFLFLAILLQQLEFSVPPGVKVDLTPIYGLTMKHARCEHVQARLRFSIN
structure (smiles),measurement,setting,value
CCCc1ccc(C(=O)O/N=C(\N)c2ccccn2)cc1,EC50,[1],0.407 µM (active)
same,EC50,[2],1.2 µM (active)
same,IC50,[3],27.8 µM (not active)
same,AC50,Paired box protein Pax-8,5.93 µM (active)
same,IC50,[4],22.1 µM (inactive)
CCOc1ccc2nc(N3C(=O)/C(=C/c4ccccc4)NC3=S)sc2c1,EC50,[5],> 150 µM (inconclusive)
same,EC50,[6],3.03 µM (active)
same,EC50,[7],0.44 µM (active)
O=C(NC(=S)Nc1ccccc1N1CCCC1)c1ccc([N+](=O)[O-])cc1,EC50,[7],3.24 µM (active)
same,IC50,Beta-galactosidase,> 66.6 µM (inactive)
same,IC50,[8],44.6 µM (inactive)
Cc1cc(C)nc(NCC(O)CNc2ccccc2Cl)n1 (configuration not stated),EC50,[9],> 20 µM (not active)
same,EC50,[10],> 20 µM (not active)
Cc1ccc(S(=O)(=O)NCC(=O)N(CC(=O)NC2CCCC2)c2ccc3c(c2)OCCO3)cc1,IC50,[11],> 109 µM (inactive)
same,IC50,[12],> 83.3 µM (inactive)
COc1ccc(CC(=O)Nc2ccncc2Cl)cc1,EC50,HEK293 [13],4.73 µM (active)
same,IC50,HEK293 [14],14 µM (active)
same,IC50,HEK293 [15],> 20 µM (inactive)
same,EC50,[16],14.9 µM (active)
same,IC50,HEK293 [17],17.8 µM (inactive)
same,IC50,HEK293 [18],> 20 µM (inactive)
same,AC50,"INS1; Rattus norvegicus, INS1",5.67 µM (active)
same,AC50,[19],2.12 µM (active)
same,AC50,[20],57.3 µM (active)
same,AC50,[21],2.13 µM (active)
CCc1ccc(C(=O)CN(C#N)c2nc(C)cc(C)n2)cc1,AC50,[22],19.3 µM (active)
same,AC50,Cytochrome P450 3A4,25.1 µM (inconclusive)
same,AC50,Cytochrome P450 2C9,inconclusive
COC(=O)c1cc(NC(=O)c2ccc(-c3ccccc3)cc2)ccc1Cl,IC50,[11],> 109 µM (inactive)
same,IC50,[12],> 83.3 µM (inactive)
C=CCn1cc(C(=O)NCc2ccc3c(c2)OCO3)c(=O)c2cc(S(=O)(=O)N(CC)CC)ccc21,IC50,Prothrombin,19.2 µM (active)
Cc1ccc(S(=O)(=O)N2CCCCC2)cc1NC(=O)Cn1ncc(Cl)c(Cl)c1=O,AC50,[23],2.6 µM (active)
same,AC50,[24],6.21 µM (active)
same,AC50,A-375,23.7 µM (active)
same,AC50,[19],4.32 µM (active)
same,AC50,[20],23.5 µM (active)
same,AC50,[25],8.36 µM (active)
same,AC50,Paired box protein Pax-8,4.3 µM (active)
same,AC50,[26],9.07 µM (active)
same,AC50,[27],10.4 µM (active)
same,AC50,[28],17.9 µM (active)
same,AC50,[29],17.5 µM (active)
same,AC50,[30],7.53 µM (active)
C[C@H](CO)N1C[C@H](C)[C@@H](CN(C)C(=O)Nc2ccc3c(c2)OCO3)Oc2cc(C#Cc3ccncc3)ccc2S1(=O)=O,AC50,Paired box protein Pax-8,3.02 µM (active)
same,AC50,[31],5.8 µM (active)
same,AC50,[32],10.9 µM (active)
same,AC50,[33],5.21 µM (active)
same,AC50,[34],13.7 µM (active)
same,AC50,[35],47.5 µM (active)
same,AC50,[36],8.81 µM (active)
COc1ccc(NC(=O)N2CCCCN3[C@@H](CO)[C@H](c4ccc(-c5ccccc5F)cc4)[C@@H]3C2)cc1,AC50,[37],2.72 µM (active)
Cc1ccc(-c2c[n+](-c3ccccc3)c3n2CCCS3)cc1,EC50,[5],50.9 µM (active)
same,EC50,[6],0.709 µM (active)
same,IC50,[38],> 80 µM (inactive)
same,AC50,"INS1; Rattus norvegicus, INS1",2.26 µM (active)
same,AC50,INS1; ins1,1.92 µM (active)
same,IC50,[4],17.4 µM (inactive)
O=C(O)Cc1ccccc1C(=O)O [2-CARBOXYBENZENEACETIC ACID],IC50,Prothrombin,> 50 µM (not active)
Cc1c(NC(C)C)c(=O)n(-c2ccccc2)n1C [RAMIFENAZONE],IC50,[39],> 40 µM (inactive)
same,IC50,[40],> 40 µM (inactive)
same,AC50,Cytochrome P450 2D6,12.6 µM (inconclusive)
same,AC50,Cytochrome P450 1A2,0.0398 µM (inconclusive)
